A word on the IC50: it is the concentration that inhibits the measured activity by half.

In experiment [1] the test system is BaF3-FL KIT D816V or BaF3-FL KIT V560G/D816V cell line. Briefly: Cell-based assays of c-Kit mutant kinase activity (cell proliferation, ATPlite). As to conditions: at least one of the c-kit cell assays of Example 7. The method, then: The c-Kit mutant D816V inhibitors were assessed using an engineered BaF3-FL KIT D816V or BaF3-FL KIT V560G/D816V cell line. The BaF3-FL KIT D816V cell lines were created by introduction of KIT mutant (D816V) full length constructs that render the cells dependent on the introduced kinase for growth. Inhibitors of c-Kit mutant D816V kinase reduce or eliminate the mediated c-kit mutant D816V kinase activation, resulting in reduced cell proliferation of the BaF3-FL Kit mutant D816V cells. This inhibition is measured by the effect of compound concentration on cell growth to assess IC50 values. BaF3-FL KIT D816V cells were seeded at 1×10^4 cells per well of a 96 well cell culture plate in 50 μl of cell culture medium of RPMI Medium 1× (Invitrogen #11875-093) supplemented with 10% FBS (Invitrogen #10438), 1% Non Essential Amino Acids (Invitrogen #11140), 1% Penicillin Streptomycin (Invitrogen #15140), 1% L-Glutamine (Invitrogen #25030-081). Compounds were dissolved in DMSO at a concentration of 5 mM and were serially diluted 1:3 for a total of eight points and added to the cells to a final maximum concentration of 10 μM in 100 μl cell culture medium (final concentration 0.2% DMSO). Cells were also treated with Dasatinib as a positive control. The cells were incubated at 37° C., 5% CO2 for three days. ATPlite Buffer (Perkin Elmer #6016739) and substrate were equilibrated to room temperature, and enzyme/substrate Recombinant Firefly Luciferase/D-Luciferin was reconstituted. The cell plates were equilibrated to room temperature for 30 minutes, then lysed by addition of 25 μL per well of the ATPlite Reagent. The plate was mixed for 5 minutes on a plate shaker to lyse the cells. The plates were read on a Tecan Safire using Luminescence protocol modified to read 0.1s per well. The luminescence reading assesses the ATP content, which correlates directly with cell number such that the reading as a function of compound concentration is used to determine the IC50 value.
Plasmids P75635 and P75565 were engineered for mammalian cell expression. In both plasmids, full-length human v-kit Hardy-Zuckerman 4 feline sarcoma viral oncogene homolog gene (NCBI accession NM_000222, KIT, residues M1-V976) was subcloned into the pCI-Neo vector (Promega E1841). Plasmid P75635 contains the mutation of residue Aspartic acid 816 to Valine. Plasmid P75565 contains the double mutation of residues Valine 560 to Glycine and Aspartic acid 816 to Valine. The pCI-neo Mammalian Expression Vector carries the human cytomegalovirus (CMV) immediate-early enhancer/promoter region to promote constitutive expression of KIT and contains the neomycin phosphotransferase gene, a selectable marker.
It is understood that the results of these assays may vary as assay conditions are varied. Inhibition levels determined under the conditions described herein represent a relative activity for the compounds tested under the specific conditions employed. The cell based assays are likely to show variability due to the complexity of the system and the sensitivity thereof to any changes in the assay conditions. […] In some instances, the compounds were not tested in all of the assays, or assay results were not valid.
For orientation: In ATP-based viability assays light output follows the ATP content of the culture.

The next experiment deals with c-Kit kinase (Homo sapiens (Human), UniProt P10721). Briefly: c-Kit biochemical assay (AlphaScreen kinase activity). The method, then: Assays for biochemical cell-based activity of c-kit kinase are known in the art, for example, as described in U.S. Pat. Nos. 7,498,342 and 7,846,941, the disclosures of which are hereby incorporated by reference as it relates to such assays. The c-kit (or kinase domain thereof) is an active kinase in AlphaScreen. IC50 values are determined with respect to inhibition of c-Kit kinase activity, where inhibition of phosphorylation of a peptide substrate is measured as a function of compound concentration. Compounds to be tested were dissolved in DMSO to a concentration of 30 mM. These were diluted 30 μl into 130 μl of DMSO (4 mM) and 1 μl was added to an assay plate. These were then serially diluted 1:3 (50 μl to 100 μl DMSO) for a total of 8 points. Plates were prepared such that each kinase reaction is 30 μl in 1× kinase buffer (50 mM HEPES, pH 7.2, 5 mM MgCl2, 5 mM MnCl2, 0.01% NP-40, 0.2% BSA), 5% DMSO and 10 μM ATP. Substrate was 100 nM biotin-(E4Y)3 (Open Source Biotech, Inc.). C-kit kinase was at 0.1 ng per sample. After incubation of the kinase reaction for 1 hour at room temperature, 5 μl of donor beads (Streptavidin coated beads (Perkin Elmer Life Science) final concentration 1 μg/ml) in stop buffer (50 mM EDTA in 1× kinase buffer) was added, the sample was mixed and incubated for 30 minutes at room temperature before adding […] of acceptor beads (PY30 coated beads (Perkin Elmer Life Science) final concentration 1 μg/ml) in stop buffer. The samples were incubated for 60 minutes at room temperature and the signal per well was read on AlphaQuest reader. Phosphorylated substrate results in binding of the PY30 antibody and association of the donor and acceptor beads such that signal correlates with kinase activity. The signal vs. compound concentration was used to determine the IC50.
Compounds were also tested using a similar assay with a 10-fold higher ATP concentration. For these samples, compounds to be tested were dissolved in DMSO to a concentration of 30 mM. These were diluted 30 μl into 130 μl of DMSO (4 mM) and 1 μl was added to an assay plate. These were then serially diluted 1:3 (50 μl to 100 μl DMSO) for a total of 8 points. Plates were prepared such that each kinase reaction is 30 μl in 1× kinase buffer (25 mM HEPES, pH 7.5, 2 mM MgCl2, 2 mM MnCl2, 0.01% […], 1 mM DTT, and 0.001% BSA), 5% DMSO and 100 μM ATP. Substrate was 30 nM biotin-(E4Y)10 (Upstate Biotech, Cat#12-440). C-kit kinase was at 1 ng per sample. After incubation of the kinase reaction for 1 hour at room temperature, 5 μl of donor beads (Streptavidin coated beads (Perkin Elmer Life Science) final concentration 10 μg/ml) in stop buffer (25 mM HEPES pH 7.5, 100 mM EDTA, 0.3% BSA) was added, the sample was mixed and incubated for 30 minutes at room temperature before adding 5 μl of acceptor beads (PY30 coated beads (Perkin Elmer Life Science) final concentration 10 μg/ml) in stop buffer. The samples were incubated for 60 minutes at room temperature and the signal per well was read on AlphaQuest or Envision reader (Perkin Elmer Life Science). Phosphorylated substrate results in binding of the PY30 antibody and association of the donor and acceptor beads such that signal correlates with kinase activity. The signal vs. compound concentration was used to determine the IC50.
The c-kit enzyme used in the above assay was either obtained from Cell Signaling Technology (Cat. #7754) or was prepared as follows: A plasmid encoding kit (DNA and encoded protein sequences shown below) was engineered using common polymerase chain reaction (PCR) methods. Complementary DNA cloned from various human tissues were purchased from Invitrogen, and these were used as substrates in the PCR reactions. Specific custom synthetic oligonucleotide primers were designed to initiate the PCR product, and also to provide the appropriate restriction enzyme cleavage sites for ligation with the plasmids. […]
(In general: Bead proximity is the source of the signal in Alpha formats.)

In the next experiment the target is c-kit mutant D816V (Homo sapiens (Human), UniProt P10721, D816V/DEL694-753). Briefly: c-Kit mutant D816V biochemical assay (AlphaScreen kinase activity). On the procedure:
The c-kit mutant D816V (or kinase domain thereof) is an active kinase in AlphaScreen. IC50 values are determined with respect to inhibition of c-Kit mutant D816V kinase activity, where inhibition of phosphorylation of a peptide substrate is measured as a function of compound concentration. Compounds to be tested were dissolved in DMSO to a concentration of 30 mM. These were diluted […] of DMSO (4 mM) and 1 μl was added to an assay plate. These were then serially diluted 1:3 (50 μl to […] DMSO) for a total of 8 points. Plates were prepared such that each kinase reaction is […] in 1× kinase buffer (25 mM HEPES, pH 7.2, 8 mM MgCl2, 2 mM MnCl2, 50 mM NaCl, 0.01% Brij, 1 mM DTT, 0.01% BSA), 5% DMSO and 10 μM ATP. Substrate was 30 nM biotin-(E4Y)10 (EMD Millipore, Cat#12-440). C-kit mutant D816V kinase was at 0.75 ng per sample. After incubation of the kinase reaction for 30 minutes at room temperature, 5 μl of donor beads (Streptavidin coated beads (Perkin Elmer Life Science) final concentration 7.5 μg/ml) in stop buffer (25 mM Hepes pH 7.5, 100 mM EDTA, 0.01% BSA) was added, the sample was mixed and incubated for 30 minutes at room temperature before adding […] of acceptor beads (PY30 coated beads (Perkin Elmer Life Science) final concentration 7.5 μg/ml) in stop buffer. The samples were incubated for 60 minutes at room temperature and the signal per well was read on EnVision reader. Phosphorylated substrate results in binding of the PY30 antibody and association of the donor and acceptor beads such that signal correlates with kinase activity. The signal vs. compound concentration was used to determine the IC50.
Recombinant c-kit mutant D816V (residues 551-934, kinase insertion domain residues 694-753 deleted) with a 6×-histidine N-terminal tag (SEQ ID NO: 3) was expressed in E. coli Arctic Express (DE3) RIL (Stratagene). Cells were grown in Terrific Broth (TB) media to an OD600 of 0.6 at 37° C. at which temperature was reduced to 10° C., protein was induced with 1.0 mM IPTG for 18 hours and harvested by centrifugation at 8000×g for 30 minutes. Cells were re-suspended in 0.1M KPO4 pH 8.0, 250 mM NaCl, 10% Glycerol, 0.75% NP-40, 25 mM Imidazole, 5 mM BME with 0.2 mg/ml Lysosyme, 2.0 mM PMSF, 25 μg/ml DNAse I, incubated in ice for 30 minutes and lyzed with a cell disruptor (MicroFluidics). The lysate was clarified by centrifugation at 30,000×g for 2 hours. The protein was captured with Talon resin (Clontech). Contaminating proteins were washed off with 25 mM Tris-HCl pH 8.3, 250 mM NaCl, 15% Glycerol, 1% Triton X-100, and protein eluted using 100 mM EDTA. The protein was further purified using Gel Filtration column 26/600 Superdex 300 (GE) in 50 mM Tris-HCl , pH 8.0, 250 mM NaCl, 15% Glycerol, 5 mM BME. The protein was aliquoted and flash-frozen in liquid Nitrogen.

c-kit mutant D816V, sequence (P10721 other isoform, or with tags, fused parts or gaps D816V/del 694-753): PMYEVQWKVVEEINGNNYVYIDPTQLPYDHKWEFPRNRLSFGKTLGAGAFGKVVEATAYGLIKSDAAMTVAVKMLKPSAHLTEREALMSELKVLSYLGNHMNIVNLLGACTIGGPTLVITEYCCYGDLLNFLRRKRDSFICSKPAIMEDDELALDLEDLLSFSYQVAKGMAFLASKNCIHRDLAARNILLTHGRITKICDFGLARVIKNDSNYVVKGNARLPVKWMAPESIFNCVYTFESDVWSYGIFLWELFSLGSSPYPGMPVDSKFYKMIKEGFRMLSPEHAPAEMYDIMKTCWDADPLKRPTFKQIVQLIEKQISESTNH
c-Kit kinase, sequence (P10721 26-976): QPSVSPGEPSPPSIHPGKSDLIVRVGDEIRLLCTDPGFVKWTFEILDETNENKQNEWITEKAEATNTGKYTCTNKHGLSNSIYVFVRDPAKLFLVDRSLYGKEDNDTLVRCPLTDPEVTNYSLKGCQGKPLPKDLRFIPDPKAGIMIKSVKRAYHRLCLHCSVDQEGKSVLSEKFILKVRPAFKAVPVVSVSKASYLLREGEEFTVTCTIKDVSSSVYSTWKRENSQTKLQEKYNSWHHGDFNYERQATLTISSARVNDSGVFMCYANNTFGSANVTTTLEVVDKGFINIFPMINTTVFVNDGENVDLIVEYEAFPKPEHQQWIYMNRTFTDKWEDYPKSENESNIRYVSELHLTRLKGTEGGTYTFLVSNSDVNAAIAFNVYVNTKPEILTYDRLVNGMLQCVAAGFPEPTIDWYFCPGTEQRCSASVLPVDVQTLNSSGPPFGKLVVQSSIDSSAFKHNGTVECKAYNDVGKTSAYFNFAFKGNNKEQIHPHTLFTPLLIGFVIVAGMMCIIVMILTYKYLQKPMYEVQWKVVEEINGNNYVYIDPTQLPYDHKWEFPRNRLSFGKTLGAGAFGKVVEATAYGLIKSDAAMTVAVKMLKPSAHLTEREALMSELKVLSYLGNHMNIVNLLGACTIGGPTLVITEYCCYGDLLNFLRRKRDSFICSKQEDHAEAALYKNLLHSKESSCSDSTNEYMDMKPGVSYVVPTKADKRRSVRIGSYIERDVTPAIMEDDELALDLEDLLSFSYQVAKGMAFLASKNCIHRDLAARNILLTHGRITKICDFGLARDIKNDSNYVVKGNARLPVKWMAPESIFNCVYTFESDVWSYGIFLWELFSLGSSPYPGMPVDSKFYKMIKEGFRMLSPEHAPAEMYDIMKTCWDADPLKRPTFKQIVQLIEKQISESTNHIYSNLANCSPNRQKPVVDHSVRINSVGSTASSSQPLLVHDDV

Turning to `Cc1[nH]c(C2CCN(c3ncnc4[nH]c(-c5ccncc5)cc34)CC2)nc1-c1ccccc1` [P-3001, 4-[4-(5-methyl-4-phenyl-1H-imidazol-2-yl)-1-piperidyl]-6-(4-pyridyl)-7H-pyrrolo[2,3-d]pyrimidine], the IC50 was below 10000 nM in experiment [1] and 0.0001 to 1 µM at c-Kit kinase.

For `Cc1nc(C2CCN(c3ncnc4[nH]c(-c5cccc(Cl)c5)cc34)CC2)[nH]c1-c1ccccc1` [P-3082, 6-(3-chlorophenyl)-4-[4-(4-methyl-5-phenyl-1H-imidazol-2-yl)-1-piperidyl]-7H-pyrrolo[2,3-d]pyrimidine], the IC50 was 0.0001 to 1 µM against c-kit mutant D816V and below 10000 nM in experiment [1].

In the case of `COc1cc(-c2[nH]c(C3CCN(c4ncnc5[nH]c(-c6ccc(F)cc6)cc45)CC3)nc2C)ccc1C` [P-3103, 6-(4-fluorophenyl)-4-[4-[5-(3-methoxy-4-methyl-phenyl)-4-methyl-1H-imidazol-2-yl]-1-piperidyl]-7H-pyrrolo[2,3-d]pyrimidine], the figures for the IC50 against c-kit mutant D816V and at c-Kit kinase were 0.0001 to 1 µM and 1 to 10 µM, respectively.

As to `COc1ccc(-c2[nH]c(C3CCN(c4ncnc5[nH]c(-c6ccc(F)cc6)cc45)CC3)nc2C(F)(F)F)cc1` [P-3147, 6-(4-fluorophenyl)-4-[4-[5-(4-methoxyphenyl)-4-(trifluoromethyl)-1H-imidazol-2-yl]-1-piperidyl]-7H-pyrrolo[2,3-d]pyrimidine], the IC50 is 0.0001 to 1 µM against c-kit mutant D816V and below 10000 nM in experiment [1].

With `Cc1cc2c(N3CCC(C)(c4nc(C)c(-c5ccc(Cl)cc5)[nH]4)CC3)ncnc2[nH]1` [P-3174, 4-[4-[5-(4-chlorophenyl)-4-methyl-1H-imidazol-2-yl]-4-methyl-1-piperidyl]-6-methyl-7H-pyrrolo[2,3-d]pyrimidine], the IC50 against c-kit mutant D816V is 0.0001 to 1 µM; in experiment [1], below 10000 nM.

(Values after patent US9771369B2, “Compounds and methods for kinase modulation, and indications therefor” (Plexxikon Inc., priority 2014, dated 2017).)
